Assay [1] can be described thus: DRUGMATRIX: Sigma2 radioligand binding (ligand: [3H] Ifenprodil). In kind it is cell membranes, Rattus norvegicus, Wistar, Brain, Membrane. As to conditions: Not Active = under 50% inhibition at 10 µM.
The target of assay [2] is T1, Cytochrome P450 1A2 (Homo sapiens, UniProt P05177). Further: in other assays of this panel Not Active means under 50% inhibition at 10 µM.
T1 sequence (P05177 whole entry): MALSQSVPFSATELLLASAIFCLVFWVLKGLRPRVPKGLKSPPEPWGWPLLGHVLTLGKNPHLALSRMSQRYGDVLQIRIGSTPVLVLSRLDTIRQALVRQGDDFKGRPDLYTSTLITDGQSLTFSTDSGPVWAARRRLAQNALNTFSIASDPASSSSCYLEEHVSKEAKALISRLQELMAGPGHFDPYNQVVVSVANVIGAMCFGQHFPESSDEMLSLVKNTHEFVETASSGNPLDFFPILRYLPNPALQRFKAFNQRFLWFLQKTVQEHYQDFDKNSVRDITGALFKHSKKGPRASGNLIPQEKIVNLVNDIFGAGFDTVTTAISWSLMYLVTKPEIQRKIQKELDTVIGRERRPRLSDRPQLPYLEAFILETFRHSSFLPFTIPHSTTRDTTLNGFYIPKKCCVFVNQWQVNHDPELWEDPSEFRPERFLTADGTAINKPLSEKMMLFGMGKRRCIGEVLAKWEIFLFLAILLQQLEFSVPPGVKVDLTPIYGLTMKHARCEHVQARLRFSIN

As a reminder, the IC50 is the point on the concentration scale where inhibition reaches its midpoint. With `COc1cc(CNC(=O)CCCC/C=C/C(C)C)ccc1O` [CAPSAICIN], the half-maximal inhibitory concentration (IC50) entry was “Not Active” in assay [1] and 3 µM in assay [2]. Besides, in assay [1], the Ki result is on record as “Not Active”.
Consider `COc1ccc2cc(CCC(C)=O)ccc2c1` [NABUMETONE], for which, in assay [1], the half-maximal inhibitory concentration (IC50) result is recorded as “Not Active” and the Ki entry is recorded as “Not Active”. The IC50 in assay [2] stood at 5 µM.

The values above are taken from ChEMBL document CHEMBL1909046, “DrugMatrix in vitro pharmacology data”.
